In publication PMC5583658, “6,7-dimethoxy-1,2,3,4-tetrahydro-isoquinoline-3-carboxylic acid attenuates heptatocellular carcinoma in rats with NMR-based metabolic perturbations” (Future Science OA, 2017):
“Also recorded” adds a separate entry of the source.

Key:
albino Wistar rats = assay: Acute oral toxicity study (OECD Guidelines 423); assay type: in vivo; conditions: for Bilirubin / Bilverdin / CAT / MDA / PC / Reduced GSH / SOD: liver; for Bilirubin / Bilverdin / CAT / MDA / PC / Reduced GSH / SOD / AST / ALT: normal rats, mean±SD, n=6; for AST / ALT: plasma
Description: Acute oral toxicity study of M1 was performed as per revised Organization for Economic Cooperation and Development Guidelines 423. Animal Ethical Committee approved this study (Approval No. SDCOP&VS/AH/CPCSE01/017/R2). M1 was dissolved in 0.25% carboxymethyl cellulose (CMC) and administered orally at the dose of 25, 50, 100, 250 mg/kg body weight to albino Wistar rats for 4 weeks (n = 6) and the animals were observed every day for any toxic manifestations.

[1] = test system: diethylnitrosamine-induced hepatocarcinogenic rats; assay: Histopathological studies of liver (hematoxylin and eosin); assay type: in vivo, albino Wistar rats; conditions: DEN+M1 50 and 100 mg/kg orally; 40X
Description: (§1) All animals were randomly divided into five groups of six animals each. Drugs were suspended in 0.25% CMC, subjected to 28 days’ treatment orally and divided as follows: Group I: 0.25% CMC (2 ml/kg), Group II: DEN (8 mg/kg, intraperitoneally), Group III: DEN+5-fluorouracil (5-FU, 10 mg/kg, intraperitoneally), Group IV: DEN+M1 (50 mg/kg, orally) and Group V: DEN+M1 (100 mg/kg, orally). The procedure to induce HCC was adopted from a paper by Song et al. where it is shown that DEN produces HCC at 8 mg/kg intraperitoneal injection for 28 days to albino Wistar rats. After initial 1 week of adaptive inhabitation, all rats of group II–V were administered with DEN (8 mg/kg, intraperitoneally) for 28 days. After 28 days, 5-FU and M1 were given for 15 days as mentioned above for group III–V. At the end of the experimental period, animals were sacrificed by cervical decapitation and livers were dissected out immediately, rinsed in ice cold saline and stored at -20°C for further studies. The serum was collected, processed and stored for further analysis.
Histopathological studies were also performed to find out the morphological changes of liver cells after M1 administration. Liver tissues from each group were assessed for their morphological changes using hematoxylin and eosin staining. The tissues were preserved in 10% formalin overnight. […]

[2] = test system: diethylnitrosamine-induced hepatocarcinogenic rats; assay: Bilirubin and biliverdin in liver of DEN-induced HCC rats; assay type: in vivo, albino Wistar rats; conditions: for Bilirubin / Biliverdin: 15 days, mean ± SD, n = 6
Description: as §1
(§2) Liver function biomarkers like aspartate aminotransferase (AST), alanine aminotransferase (ALT) were also measured in serum using commercially available kit from Ebra Diagonesis Pvt Ltd, Germany. The oxidative parameters like superoxide dismutase (SOD), thiobarbituric acid reactive substances (TBARS), protein carbonyl (PC), SOD [14], tissue catalase (CAT) and glutathione (GSH) levels were estimated in liver tissue in the similar experiment. The total protein content of each sample was measured using the Bradford reagent and bovine serum albumin was used as a standard. Conjugated bilirubin and biliverdin in liver were measured as per the following procedure stated earlier in the literature with slight modifications.

[3] = test system: diethylnitrosamine-induced hepatocarcinogenic rats; assay: ALT and AST in plasma of DEN-induced HCC rats; assay type: in vivo, albino Wistar rats; conditions: 15 days, mean ± SD, n = 6
Description: as §1, §2

Huh-7 cells = conditions: in vitro, MTT assay; M1 isolated from MP seeds; cited from earlier work

COc1cc2c(cc1OC)CC(C(=O)O)NC2 (stereo not drawn) [M1, 6,7-dimethoxy-1,2,3,4-tetrahydro-isoquinoline-3-carboxylic acid]
changes in ALT, AST, bilirubin, biliverdin, SOD, CAT, PC, GSH, TBARS as compared with normal control (albino Wistar rats; M1 dose ranging from 25 to 250 mg/kg orally): no significant changes
Bilirubin (albino Wistar rats; M1 25 mg/kg orally): 19.24±1.27 ng/µg of protein
Bilverdin (albino Wistar rats; M1 25 mg/kg orally): 7.15±0.78 ng/µg of protein
CAT (albino Wistar rats; M1 25 mg/kg orally): 8.22 ± 1.91 nM of H2O2 /min/μg of protein
MDA (albino Wistar rats; M1 25 mg/kg orally): 9.25 ± 2.87 nM/μg of protein
PC (albino Wistar rats; M1 25 mg/kg orally): 0.68 ± 0.17 µM/μg of protein
Reduced GSH (albino Wistar rats; M1 25 mg/kg orally): 4.94 ± 1.17 µM/μg of protein
SOD (albino Wistar rats; M1 25 mg/kg orally): 14.27 ± 2.88 U/μg of protein
Bilirubin (albino Wistar rats; M1 50 mg/kg orally): 19.11±3.19 ng/µg of protein
Bilverdin (albino Wistar rats; M1 50 mg/kg orally): 5.99±1.04 ng/µg of protein
CAT (albino Wistar rats; M1 50 mg/kg orally): 6.94 ± 2.06 nM of H2O2 /min/μg of protein
MDA (albino Wistar rats; M1 50 mg/kg orally): 10.11 ± 0.96 nM/μg of protein
PC (albino Wistar rats; M1 50 mg/kg orally): 0.62 ± 0.05 µM/μg of protein
Reduced GSH (albino Wistar rats; M1 50 mg/kg orally): 5.42 ± 1.34 µM/μg of protein
SOD (albino Wistar rats; M1 50 mg/kg orally): 9.78 ± 1.17 U/μg of protein
Bilirubin (albino Wistar rats; M1 100 mg/kg orally): 18.24±2.55 ng/µg of protein
Bilverdin (albino Wistar rats; M1 100 mg/kg orally): 7.62±1.45 ng/µg of protein
CAT (albino Wistar rats; M1 100 mg/kg orally): 8.45 ± 1.59 nM of H2O2 /min/μg of protein
MDA (albino Wistar rats; M1 100 mg/kg orally): 11.22 ± 1.91 nM/μg of protein
PC (albino Wistar rats; M1 100 mg/kg orally): 0.49 ± 0.07 µM/μg of protein
Reduced GSH (albino Wistar rats; M1 100 mg/kg orally): 5.78 ± 1.65 µM/μg of protein
SOD (albino Wistar rats; M1 100 mg/kg orally): 8.97 ± 1.95 U/μg of protein
Bilirubin (albino Wistar rats; M1 250 mg/kg orally): 20.13±2.56 ng/µg of protein
Bilverdin (albino Wistar rats; M1 250 mg/kg orally): 7.91±0.99 ng/µg of protein
CAT (albino Wistar rats; M1 250 mg/kg orally): 7.38 ± 1.28 nM of H2O2 /min/μg of protein
MDA (albino Wistar rats; M1 250 mg/kg orally): 12.33 ± 2.17 nM/μg of protein
PC (albino Wistar rats; M1 250 mg/kg orally): 0.48 ± 0.08 µM/μg of protein
Reduced GSH (albino Wistar rats; M1 250 mg/kg orally): 6.22 ± 1.07 µM/μg of protein
SOD (albino Wistar rats; M1 250 mg/kg orally): 9.12 ± 1.65 U/μg of protein
safe dose (albino Wistar rats; oral, albino Wistar rats, 4 weeks): up to 250 mg/kg body weight
AST (albino Wistar rats; M1 25 mg/kg orally): 11.33 ± 3.67 U/L
ALT (albino Wistar rats; M1 50 mg/kg orally): 33.16± 4.22 U/L
AST (albino Wistar rats; M1 50 mg/kg orally): 11.90 ± 1.69 U/L
ALT (albino Wistar rats; M1 100 mg/kg orally): 33.24 ± 1.57 U/L
AST (albino Wistar rats; M1 100 mg/kg orally): 14.33 ± 1.28 U/L
ALT (albino Wistar rats; M1 250 mg/kg orally): 35.11 ± 2.84 U/L
AST (albino Wistar rats; M1 250 mg/kg orally): 14.92 ± 3.52 U/L
liver histopathology [1]: normal tissue architecture was seen; also recorded: less ruptured and denatured cells (RC and DC) than toxic control
Bilirubin ([2]; DEN+M1 50 mg/kg orally): 50.59 ± 1.39 ng/μg of protein
Biliverdin ([2]; DEN+M1 50 mg/kg orally): 21.19 ± 2.42 ng/μg of protein
Bilirubin ([2]; DEN+M1 100 mg/kg orally): 40.64 ± 3.47 ng/μg of protein
Biliverdin ([2]; DEN+M1 100 mg/kg orally): 16.95 ± 1.96 ng/μg of protein
biliverdin concentration ([2]; M1-treated rats, text value (toxic control ∼28 ng)): ~16 ng
ALT ([3]; DEN+M1 50 mg/kg orally): 88.4 ± 3.18 U/L
AST ([3]; DEN+M1 50 mg/kg orally): 47.73 ± 1.76 U/L
ALT ([3]; DEN+M1 100 mg/kg orally): 58.04 ± 2.84 U/L
AST ([3]; DEN+M1 100 mg/kg orally): 40.95 ± 1.35 U/L
antiproliferative action on Huh-7 cells (Huh-7 cells): good antiproliferative action
